Laboratory results: paper PMC11010885, “Functional Analysis and Tissue-Specific Expression of Calcitonin and CGRP with RAMP-Modulated Receptors CTR and CLR in Chickens” (Animals : an Open Access Journal from MDPI, 2024)
Entries after “also recorded” stand apart in the source; their conditions may differ.

Key:
Format in all cases: cell-based
chicken CLR + RAMP2 [1] = assay: MAPK/ERK pGL4-SRE-luciferase reporter assay, CLR + RAMP2 in CHO cells; settings: 10^−12 M to 10^−6 M, 6 h, mean ± SEM, n = 3, read-out: EC50, MAPK/ERK signaling pathway
Procedure: (§1) Chinese hamster ovary (CHO) cells were cultured in Dulbecco’s modified Eagle’s medium (DMEM) supplemented with 10% (vol/vol) fetal bovine serum (HyClone, Logan, UT, USA), 100 U/mL penicillin G and 100 μg/mL streptomycin. The cells were maintained in a 90 mm culture dish (Nunc, Rochester, NY, USA) and incubated at 37 °C with 5% CO2. To investigate the signaling pathways associated with each receptor in CHO cells, three different reporter systems (pGL3-CRE-luciferase, pGL4-SRE-luciferase, and pGL3-NFAT-RE-luciferase) were utilized to monitor intracellular cAMP/PKA and MAPK/ERK signaling pathways and calcium mobilization of the activated receptors, respectively.
(§2) Prior to the transfection procedure, the cells were initially cultured in 6-well plates (Nunc, Rochester, NY, USA), maintaining a seeding density of approximately 300,000 cells per well. Upon achieving approximately 70% confluence, the cells underwent a co-transfection process. […] The fluorescence activity of the luciferase in each treatment group was measured using a multimode microplate reader (TriStar LB941, Berthold Technologies, Bad Wildbad, Germany). Finally, the fluorescence activity of each treatment group was expressed as a relative increase ratio compared to the control group.

chicken CLR + RAMP3 [2] = assay: MAPK/ERK pGL4-SRE-luciferase reporter assay, CLR + RAMP3 in CHO cells; settings: 10^−12 M to 10^−6 M, 6 h, mean ± SEM, n = 3, read-out: EC50, MAPK/ERK signaling pathway
Procedure: as §1, §2

chicken CTR [3] = assay: Calcium pGL3-NFAT-RE-luciferase reporter assay, CTR + pcDNA in CHO cells; settings: 10^−12 M to 10^−6 M, 6 h, mean ± SEM, n = 3, read-out: EC50, calcium signaling pathway
Procedure: as §1, §2

chicken CTR + RAMP1 = assay: Calcium pGL3-NFAT-RE-luciferase reporter assay, CTR + RAMP1 in CHO cells; settings: 10^−12 M to 10^−6 M, 6 h, mean ± SEM, n = 3, read-out: EC50, calcium signaling pathway
Procedure: as §1, §2

chicken CTR + RAMP2 = assay: Calcium pGL3-NFAT-RE-luciferase reporter assay, CTR + RAMP2 in CHO cells; settings: CTR + RAMP2, CHO cells, pGL3-NFAT-RE-luciferase, 10^−12 M to 10^−6 M, 6 h; mean ± SEM, n = 3; read-out: EC50, calcium signaling pathway
Procedure: as §1
(§3) Prior to the transfection procedure, the cells were initially cultured in 6-well plates (Nunc, Rochester, NY, USA), maintaining a seeding density of approximately 300,000 cells per well. Upon achieving approximately 70% confluence, the cells underwent a co-transfection process. This procedure entailed the introduction of 700 ng of various luciferase reporter constructs (namely, pGL3-CRE-luciferase, pGL4-SRE-luciferase, or pGL3-NFAT-RE-luciferase) combined with 200 ng of a specific receptor plasmid (CTR or CLR) and 1000 ng of either RAMP1, RAMP2, RAMP3 expression plasmids, or alternatively, the empty pcDNA3.1 (+) vector. A volume of 5.7 μL of PEI MAX was used in 200 μL of buffer following the manufacturer’s protocol. After 24 h of incubation, the transfected CHO cells were subcultured in 96-well plates and passaged for an additional 24 h before peptide treatment. Then, the medium from the 96-well plates was removed, and the cells were treated with chicken CT/CGRP-containing medium (or untreated medium as a control) at concentrations ranging from 10^−12 M to 10^−6 M for 6 h. […] The fluorescence activity of the luciferase in each treatment group was measured using a multimode microplate reader (TriStar LB941, Berthold Technologies, Bad Wildbad, Germany). Finally, the fluorescence activity of each treatment group was expressed as a relative increase ratio compared to the control group.

chicken CTR + RAMP3 = assay: Calcium pGL3-NFAT-RE-luciferase reporter assay, CTR + RAMP3 in CHO cells; settings: 10^−12 M to 10^−6 M, 6 h, mean ± SEM, n = 3, read-out: EC50, calcium signaling pathway
Procedure: as §1, §2

chicken CLR = assay: Calcium pGL3-NFAT-RE-luciferase reporter assay, CLR + pcDNA in CHO cells; settings: 10^−12 M to 10^−6 M, 6 h, mean ± SEM, n = 3, read-out: EC50, calcium signaling pathway
Procedure: as §1, §2

chicken CLR + RAMP1 [4] = assay: Calcium pGL3-NFAT-RE-luciferase reporter assay, CLR + RAMP1 in CHO cells; settings: 10^−12 M to 10^−6 M, 6 h, mean ± SEM, n = 3, read-out: EC50, calcium signaling pathway
Procedure: as §1, §2

chicken CLR + RAMP2 [5] = assay: Calcium pGL3-NFAT-RE-luciferase reporter assay, CLR + RAMP2 in CHO cells; settings: CLR + RAMP2, CHO cells, pGL3-NFAT-RE-luciferase, 10^−12 M to 10^−6 M, 6 h; mean ± SEM, n = 3; read-out: EC50, calcium signaling pathway
Procedure: as §1, §3

chicken CLR + RAMP3 [6] = assay: Calcium pGL3-NFAT-RE-luciferase reporter assay, CLR + RAMP3 in CHO cells; settings: 10^−12 M to 10^−6 M, 6 h, mean ± SEM, n = 3, read-out: EC50, calcium signaling pathway
Procedure: as §1, §2

chicken CTR [7] = assay: Western blot CREB phosphorylation, CTR in CHO cells; settings: 10 nM, 10 min, n = 3
Procedure: (§4) To assess whether the activation of chicken CTR and CLR, along with the presence of RAMPs, can augment the phosphorylation levels of cAMP response element-binding protein (CREB), 200 ng of CTR or CLR expression plasmids were combined with 1000 ng of chicken RAMPs or an empty pcDNA3.1 (+) vector in a 100 μL buffer. The resulting mixture was then transfected into CHO cells in a 12-well plate (Nunc, Rochester, NY, USA) using 3.6 μL of PEI MAX transfection reagent. After a 24 h incubation period, the cells were exposed to chicken CT (10 nM) or CGRP (10 nM) for 10 min. Subsequently, the culture medium was removed, and the cells were lysed according to the manufacturer’s instructions. Western blot analysis was performed to quantify the levels of CREB and phosphorylated CREB (p-CREB). The optical densities were analyzed and normalized using the software, ImageJ 1.52a (National Institutes of Health, Bethesda, MD, USA). The relative expression of p-CREB/CREB was determined by calculating the ratio of the optical density to that of the control without peptide treatment (0 min).

chicken CTR + RAMPs = assay: Western blot CREB phosphorylation, CTR + RAMPs in CHO cells; settings: 10 nM, 10 min, n = 3
Procedure: as §4

chicken CLR + RAMP1 [8] = assay: Western blot CREB phosphorylation, CLR + RAMP1 in CHO cells; settings: 10 nM, 10 min, n = 3
Procedure: as §4

chicken CLR + RAMP3 [9] = assay: Western blot CREB phosphorylation, CLR + RAMP3 in CHO cells; settings: 10 nM, 10 min, n = 3
Procedure: as §4

[10] = system: chicken CTR in the absence or presence of RAMPs; assay: cAMP/PKA pGL3-CRE-luciferase reporter assay, CTR without and with RAMPs compared
Procedure: as §1, §3

[11] = system: chicken CLR in the absence or presence of RAMPs; assay: cAMP/PKA pGL3-CRE-luciferase reporter assay, CLR without and with RAMPs compared
Procedure: as §1
Prior to the transfection procedure, the cells were initially cultured in 6-well plates (Nunc, Rochester, NY, USA), maintaining a seeding density of approximately 300,000 cells per well. Upon achieving approximately 70% confluence, the cells underwent a co-transfection process. This procedure entailed the introduction of 700 ng of various luciferase reporter constructs (namely, pGL3-CRE-luciferase, pGL4-SRE-luciferase, or pGL3-NFAT-RE-luciferase) combined with 200 ng of a specific receptor plasmid (CTR or CLR) and 1000 ng of either RAMP1, RAMP2, RAMP3 expression plasmids, or alternatively, the empty pcDNA3.1 (+) vector. A volume of 5.7 μL of PEI MAX was used in 200 μL of buffer following the manufacturer’s protocol. After 24 h of incubation, the transfected CHO cells were subcultured in 96-well plates and passaged for an additional 24 h before peptide treatment. Then, the medium from the 96-well plates was removed, and the cells were treated with chicken CT/CGRP-containing medium (or untreated medium as a control) at concentrations ranging from 10^−12 M to 10^−6 M for 6 h. Subsequently, the cells were harvested for luciferase assays by lysing them in 1 × passive lysis buffer. To measure the luciferase activity of the cell lysate, 40 μL of luciferase assay reagent (Promega, Madison, WI, USA) was mixed with the cell lysate following the manufacturer’s instructions. The fluorescence activity of the luciferase in each treatment group was measured using a multimode microplate reader (TriStar LB941, Berthold Technologies, Bad Wildbad, Germany). Finally, the fluorescence activity of each treatment group was expressed as a relative increase ratio compared to the control group.

calcitonin gene-related peptide [CGRP]
EC50 (chicken CLR + RAMP2 [1]): 90.9 ± 17.4 nM
EC50 (chicken CLR + RAMP3 [2]): 4.31 ± 1.73 nM
EC50 (chicken CTR [3]): > 100 nM
EC50 (chicken CTR + RAMP1): > 100 nM
EC50 (chicken CTR + RAMP2): > 100 nM
EC50 (chicken CTR + RAMP3): > 100 nM
EC50 (chicken CLR): > 100 nM
EC50 (chicken CLR + RAMP1 [4]): 0.15 ± 0.11 nM
EC50 (chicken CLR + RAMP2 [5]): > 100 nM
EC50 (chicken CLR + RAMP3 [6]): > 100 nM
CREB phosphorylation (p-CREB/CREB vs. control, 0 min) (chicken CTR [7]): significantly increased the CREB phosphorylation
CREB phosphorylation (p-CREB/CREB vs. control, 0 min) (chicken CTR + RAMPs): significantly increased the CREB phosphorylation
CREB phosphorylation (p-CREB/CREB vs. control, 0 min) (chicken CLR + RAMP1 [8]): significantly enhanced the CREB phosphorylation
CREB phosphorylation (p-CREB/CREB vs. control, 0 min) (chicken CLR + RAMP3 [9]): significantly enhanced the CREB phosphorylation
effect of RAMP co-expression on sensitivity of CTR ([10]; CHO cells, pGL3-CRE-luciferase): co-expression of RAMP1 or RAMP3 significantly increased the sensitivity of CTR to CGRP
rank order of receptor sensitivity ([10]; CTR without/with RAMPs): CTR + RAMP1 ≈ CTR + RAMP3 > CTR + RAMP2 ≈ CTR
effect of RAMP co-expression on sensitivity of CLR ([11]; CHO cells, pGL3-CRE-luciferase): a significant increase in CLR’s sensitivity to CGRP with RAMP1 and RAMP3 co-expression; also recorded: RAMP2 co-expression led to a limited enhancement in sensitivity
rank order of receptor sensitivity ([11]; CLR without/with RAMPs): CLR + RAMP1 > CLR + RAMP3 >> CLR + RAMP2 >> CLR
